Measured values from publication PMC9503132, “Development of Halogenated-Chalcones Bearing with Dimethoxy Phenyl Head as Monoamine Oxidase-B Inhibitors” (Pharmaceuticals, 2022).
≈ marks a conversion by molar mass, not a printed value.

Key:
BACE-1 = target: T1, BACE-1 (Homo sapiens, UniProt P56817); experiment: BACE-1 inhibition (β-secretase activity detection kit); assay type: biochemical; conditions: 10 µM compound; read-out: Residual activity at 10 µM (%) BACE-1
T1 construct: purchased Sigma-Aldrich
T1 sequence (P56817 46-501): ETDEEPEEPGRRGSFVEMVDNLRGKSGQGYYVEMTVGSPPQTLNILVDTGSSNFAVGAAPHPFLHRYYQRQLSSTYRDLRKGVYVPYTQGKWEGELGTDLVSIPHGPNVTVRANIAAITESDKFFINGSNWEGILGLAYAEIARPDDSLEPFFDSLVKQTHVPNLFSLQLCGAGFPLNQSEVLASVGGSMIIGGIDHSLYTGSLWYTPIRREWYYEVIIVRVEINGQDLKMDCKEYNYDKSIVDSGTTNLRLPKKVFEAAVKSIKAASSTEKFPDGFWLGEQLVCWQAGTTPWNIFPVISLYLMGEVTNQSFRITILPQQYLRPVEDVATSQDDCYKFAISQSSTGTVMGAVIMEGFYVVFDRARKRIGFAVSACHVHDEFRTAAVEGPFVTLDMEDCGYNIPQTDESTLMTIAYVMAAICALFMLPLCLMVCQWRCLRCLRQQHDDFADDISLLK
Experimental: (§1) The AChE and BChE inhibitory activities were measured by continuous colorimetric determination method, in the presence of 0.5 mM acetylthiocholine iodide (ACTI) and butyrylthiocholine iodide […]
(§2) POP, K LAB, Daejeon, Korea). After adding the substrate, 0.5 mM 5,5-dithiobis (2-nitrobenzoic acid) (DTNB) was added as the color development solution. The BACE-1 inhibitory activity was evaluated by β-secretase (BACE1) activity detection kit (Sigma-Aldrich, St. Louis, Mo, USA) using a fluorescence spectrometer (FS-2, Scinco, Seoul, Korea). […]

MAO-A = target: T2, MAO-A (Homo sapiens, UniProt P21397); experiment: MAO-A inhibition assay (recombinant enzyme, kynuramine substrate); assay type: biochemical; conditions: recombinant MAO-A, kynuramine 0.06 mM; for remaining activity at 10 µM: 10 µM compound, read-out: Residual Activity at 10 µM (%) MAO-A; for IC50: read-out: IC50 (µM) MAO-A
T2 construct: purchased Sigma-Aldrich
T2 sequence (P21397 1-527): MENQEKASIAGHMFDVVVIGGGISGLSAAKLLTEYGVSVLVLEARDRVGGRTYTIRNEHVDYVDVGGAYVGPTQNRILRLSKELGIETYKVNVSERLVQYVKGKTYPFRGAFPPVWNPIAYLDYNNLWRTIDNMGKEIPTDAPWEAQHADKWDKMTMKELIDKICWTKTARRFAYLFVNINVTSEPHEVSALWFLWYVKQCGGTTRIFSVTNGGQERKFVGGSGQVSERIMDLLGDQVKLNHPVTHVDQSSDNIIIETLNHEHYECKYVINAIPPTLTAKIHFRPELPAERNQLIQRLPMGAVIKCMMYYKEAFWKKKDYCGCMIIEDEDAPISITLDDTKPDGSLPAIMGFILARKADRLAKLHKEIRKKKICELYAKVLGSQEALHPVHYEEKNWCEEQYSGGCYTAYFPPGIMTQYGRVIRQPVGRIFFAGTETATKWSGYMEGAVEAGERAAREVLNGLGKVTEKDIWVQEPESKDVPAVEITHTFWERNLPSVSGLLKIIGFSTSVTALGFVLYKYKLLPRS
Experimental: (§3) Recombinant MAO-A and MAO-B were used to test the MAO inhibitory activity using the substrates kynuramine and benzylamine (0.06 mM and 0.3 mM, respectively). […] Chemicals were from Sigma-Aldrich.
(§4) MAO-A At 10 µM, compounds’ inhibitory effects on MAOs were initially recorded. […] The SI values of MAO-B were calculated by dividing the IC50 values for MAO-A and those for MAO-B. The MAO-B was used to study the kinetics of substances DM2 or DM18 at five different substrate concentrations. By using the LB plots and their secondary plots at three different inhibitor doses, the inhibition patterns were examined.

BChE = BChE (Equus caballus, UniProt P81908); experiment: biochemical; conditions: read-out: Residual activity at 10 µM (%) BChE
Sequence of BChE (P81908 whole entry): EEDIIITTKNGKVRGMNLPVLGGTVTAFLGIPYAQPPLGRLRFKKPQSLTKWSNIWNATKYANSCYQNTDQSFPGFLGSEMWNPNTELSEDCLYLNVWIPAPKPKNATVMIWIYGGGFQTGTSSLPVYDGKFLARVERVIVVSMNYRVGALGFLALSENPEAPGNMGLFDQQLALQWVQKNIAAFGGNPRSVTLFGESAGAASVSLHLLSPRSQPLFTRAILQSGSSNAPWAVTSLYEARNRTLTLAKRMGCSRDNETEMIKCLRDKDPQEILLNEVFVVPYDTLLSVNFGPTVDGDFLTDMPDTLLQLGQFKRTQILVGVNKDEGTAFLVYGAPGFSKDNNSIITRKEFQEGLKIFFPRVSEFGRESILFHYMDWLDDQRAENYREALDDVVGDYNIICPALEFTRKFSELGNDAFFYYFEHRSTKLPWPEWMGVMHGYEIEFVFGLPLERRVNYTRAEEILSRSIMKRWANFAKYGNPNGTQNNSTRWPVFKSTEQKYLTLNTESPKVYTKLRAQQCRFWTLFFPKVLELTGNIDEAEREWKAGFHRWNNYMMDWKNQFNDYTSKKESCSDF
Experimental: as §1, §2

AChE = AChE (Electrophorus electricus, UniProt O42275); experiment: AChE inhibition (colorimetric, acetylthiocholine iodide); assay type: biochemical; conditions: read-out: Residual activity at 10 µM (%) AChE
Sequence of AChE (O42275 24-633): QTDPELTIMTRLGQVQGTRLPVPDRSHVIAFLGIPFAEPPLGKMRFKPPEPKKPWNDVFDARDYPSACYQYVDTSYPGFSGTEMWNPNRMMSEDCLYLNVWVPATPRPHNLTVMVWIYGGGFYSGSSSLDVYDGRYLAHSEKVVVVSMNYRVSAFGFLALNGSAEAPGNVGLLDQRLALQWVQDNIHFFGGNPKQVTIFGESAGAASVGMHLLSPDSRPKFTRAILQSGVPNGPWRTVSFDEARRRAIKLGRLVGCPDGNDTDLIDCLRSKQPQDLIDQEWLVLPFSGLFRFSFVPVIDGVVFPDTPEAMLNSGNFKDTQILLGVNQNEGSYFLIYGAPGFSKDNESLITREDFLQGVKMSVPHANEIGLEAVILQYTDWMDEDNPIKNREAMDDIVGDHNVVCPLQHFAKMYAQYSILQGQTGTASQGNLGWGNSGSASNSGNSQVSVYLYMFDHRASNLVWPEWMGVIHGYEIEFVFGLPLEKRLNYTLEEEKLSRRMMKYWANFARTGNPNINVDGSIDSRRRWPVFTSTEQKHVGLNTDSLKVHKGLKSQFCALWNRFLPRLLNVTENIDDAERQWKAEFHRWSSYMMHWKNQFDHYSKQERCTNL
Experimental: as §1
POP, K LAB, Daejeon, Korea). After adding the substrate, 0.5 mM 5,5-dithiobis (2-nitrobenzoic acid) (DTNB) was added as the color development solution. The BACE-1 inhibitory activity was evaluated by β-secretase (BACE1) activity detection kit (Sigma-Aldrich, St. Louis, Mo, USA) using a fluorescence spectrometer (FS-2, Scinco, Seoul, Korea).
64. […] A new and rapid colorimetric determination of acetylcholinesterase activity. Biochem. Pharmacol. 7, 88-95. […]

MAO-B [1] = target: T3, MAO-B (Homo sapiens, UniProt P27338); experiment: MAO-B kinetic study (Lineweaver-Burk and secondary plots); assay type: biochemical; conditions: for Inhibition pattern of MAO-B: Lineweaver-Burk plots, five substrate and three inhibitor concentrations; for Ki: secondary plots of LB slopes vs. inhibitor concentration
T3 construct: purchased Sigma-Aldrich
T3 sequence (P27338 1-520): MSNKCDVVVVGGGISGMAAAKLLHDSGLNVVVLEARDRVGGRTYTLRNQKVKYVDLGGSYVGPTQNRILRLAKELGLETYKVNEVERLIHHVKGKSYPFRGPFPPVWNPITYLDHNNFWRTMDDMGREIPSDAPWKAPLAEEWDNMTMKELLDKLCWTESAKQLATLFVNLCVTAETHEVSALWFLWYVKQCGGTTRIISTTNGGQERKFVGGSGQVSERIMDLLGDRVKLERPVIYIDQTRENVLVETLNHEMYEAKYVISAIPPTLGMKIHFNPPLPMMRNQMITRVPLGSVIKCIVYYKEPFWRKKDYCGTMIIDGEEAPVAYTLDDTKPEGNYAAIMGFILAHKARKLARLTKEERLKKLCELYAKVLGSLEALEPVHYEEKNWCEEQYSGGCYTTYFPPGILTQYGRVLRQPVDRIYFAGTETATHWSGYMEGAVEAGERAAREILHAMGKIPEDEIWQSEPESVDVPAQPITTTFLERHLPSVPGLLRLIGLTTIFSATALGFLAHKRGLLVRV
Experimental: as §4

[2] = MTT cytotoxicity test on Vero cells; assay type: cell-based, African green monkey; conditions: African green monkey, Vero cells, MTT
Experimental: (§5) Vero cells were treated to various doses (10–500 µg/mL) for 48 h, and relative cell viability was determined by measuring the absorbance at 570 nm with an ELISA microplate.
(§6) Cytotoxicity study of the lead molecule DM2 was carried out as previously described and as in Supplementary Materials described shortly.
(§7) Text S1. Supplementary procedure for toxicity evaluation
(§8) The cell line of Vero (African green monkey kidney cells) was procured from NCCS (Pune, India) and was grown in liquid medium (DMEM) containing 100 ug/mL penicillin, 100 µg/mL streptomycin, and 10% Fetal Bovine Serum (FBS) and preserved under an atmosphere of 5% CO2 at […]
(§9) The DM2 was assayed for in vitro cytotoxicity by MTT assay using the cultured Vero cells.
(§10) Briefly, the cultured Vero cells were produced by cell dissociation with trypsin (trypsinization), collectively in a 15 mL tube. At a density of 1×10^5 cells/mL cells/well (200 µL), the cells were plated for 24-48 h at 37°C into 96-well tissue culture plate in DMEM medium containing 10 % FBS and 1% antibiotic solution. The wells were washed with sterile phosphate buffered saline (PBS) and further allowed to react with varying concentrations of the DM2 in a serum free DMEM medium. The samples were triplicated and the cells were kept for incubation at 37°C for 24 h in a humidified 5% CO2 incubator. MTT (20 µL of 5 mg/mL) was added into each well after the incubation and the cells were incubated for another 2-4 h. The end point was determined by the purple precipitation, which was clearly seen under an inverted microscope. At the end, the medium along with MTT (220 µL) were used for the aspiration of the wells and later washed with 1X PBS (200 µL). In order to dissolve formazan crystals, DMSO (100 µL) was added to the plate with shaking for 5 min. The absorbance at 570 nm was measured using a micro plate reader (Thermo Fisher Scientific, USA). The IC50 value and the percentage cell viability was calculated using GraphPad Prism 8.0 software (USA).

Vero cells = experiment: MTT cytotoxicity test on Vero cells; assay type: cell-based, African green monkey; conditions: 300 µg/mL, 48 h, phase contrast microscope
Experimental: as §5, §6, §7, §8, §9, §10

MAO-B [3] = target: T3, MAO-B; experiment: Reversibility of MAO-B inhibition by dialysis; assay type: biochemical; conditions: for Reversibility of MAO-B inhibition: dialysis experiment; for Relative MAO-B activity, dialyzed (AD) / Relative MAO-B activity, undialyzed (AU): ~2 × IC50 (DM2 0.13, DM18 0.24, lazabemide 0.22, pargyline 0.28 µM), 30 min preincubation; for Relative MAO-B activity, dialyzed (AD): after dialysis
Experimental: To identify the reversibility patterns, the relative activities for samples dialyzed (AD) and for those undialyzed (AU) were compared.
By contrasting the recovery results of samples that had been dialyzed (AD) and undialyzed (AU), reversibility patterns were determined.

MAO-B [4] = target: T3, MAO-B; experiment: MAO-B inhibition assay (recombinant enzyme, benzylamine substrate); assay type: biochemical
Experimental: as §3, §4

| Structure (SMILES) | remaining activity at 10 µM (BACE-1) [%] | remaining activity at 10 µM (MAO-A) [%] | IC50 (MAO-A) [µM] | remaining activity at 10 µM (BChE) [%] | remaining activity at 10 µM (AChE) [%] | Inhibition pattern of MAO-B (MAO-B [1]) | Ki (MAO-B [1]) [nM] | IC50 at 48 h ([2]; Vero cells (kidney epithelial cells), 10–500 µg/mL, read-out: IC50 (Vero cell viability)) [µg/mL] | viability at 48 h, 100 µg/mL ([2]; 100 µg/mL, read-out: Cells alive (relative cell viability)) [%] | Morphological observation of Vero cells (Vero cells) | Reversibility of MAO-B inhibition (MAO-B [3]) | Relative MAO-B activity, dialyzed (AD) (MAO-B [3]) [%] | Relative MAO-B activity, undialyzed (AU) (MAO-B [3]) [%] | remaining activity at 10 µM (MAO-B [4]; 10 µM compound, recombinant MAO-B, benzylamine 0.3 mM, read-out: Residual Activity at 10 µM (%) MAO-B) [%] | SI (selectivity index for MAO-B as compared to MAO-A) (MAO-B [4]; IC50 MAO-A divided by IC50 MAO-B) | Times more MAO-B inhibition than meta-F analogue DM19 (MAO-B [4]; ortho-F (DM18) versus meta-F (DM19)) | IC50 (MAO-B [4]; recombinant MAO-B, benzylamine 0.3 mM, read-out: IC50 (µM) MAO-B) [µM] |
| --- | --- | --- | --- | --- | --- | --- | --- | --- | --- | --- | --- | --- | --- | --- | --- | --- | --- |
| COc1ccc(C(=O)/C=C/c2ccccc2Cl)c(OC)c1 [DM2] | 100.5 ± 0.18 | 41.5 ± 1.59 | 6.29 ± 0.432 | 64.16 ± 0.44 | 71.9 ± 2.87 | competitive inhibitors | 32 ± 4 | 183 (≈ 605 µM) | 80 | cytotoxicity was evident in cell shrinkage and blebbing, and cellular density decreased | reversible | 74.0 | 36.0 |  |  |  |  |
| COc1ccc(C(=O)/C=C/c2ccccc2F)cc1OC [DM18] | 99.94 ± 0.01 | 100 ± 0.01 | > 40 | 59.5 ± 4.08 | 78.5 ± 4.89 | competitive inhibitors | 45 ± 1 |  |  |  | reversible | 76.6 | 40.1 | 8.87 ± 1.08 | >338.98 | 3.75 | 0.118 ± 0.036 |
